According to the NIST ThermoML archive (doi:10.1016/j.fluid.2006.05.015):

Details: Fluid (supercritical or subcritical phases), Constant-volume piezometry

O [water]
Details	mass density [kg/m3]
299.25 K, 5182 kPa	999.2
299.25 K, 31060 kPa	1010.4
349.12 K, 8540 kPa	977.86
349.12 K, 24440 kPa	984.93
399.57 K, 3183 kPa	939.45
399.57 K, 30090 kPa	952.6
438.94 K, 6455 kPa	905.35
438.94 K, 27860 kPa	917.35
494.18 K, 8890 kPa	844.81
494.18 K, 29240 kPa	859.91
555.43 K, 9803 kPa	751.67
555.43 K, 27940 kPa	777.34
617.27 K, 16300 kPa	603.42
617.27 K, 28080 kPa	653.82
